Reference: the NIST ThermoML archive (doi:10.1021/je800658v)
Numbers after ± are expanded uncertainties.

experiment: activity coefficient (dimensionless); of the first substance listed, at infinite dilution; xn = mol fraction of the nth substance listed; details: 322.55 K; Liquid; Chromatography; x1 = 0

Row | activity coefficient | Compound
1 | 97.4 ± 6.7 | CCCCCC [hexane] + CCCCn1cc[n+](C)c1.F[B-](F)(F)F

same assay, conditions: 322.55 K; Liquid; inverse gas chromatography; x1 = 0

Row | Compound | activity coefficient
2 | ClC(Cl)(Cl)Cl [tetrachloromethane] + CCCCn1cc[n+](C)c1.F[B-](F)(F)F | 5.38 ± 0.32
3 | CC(C)CC(C)(C)C [2,2,4-trimethylpentane] + CCCCn1cc[n+](C)c1.F[B-](F)(F)F | 198 ± 12
4 | CCC(C)=O [butanone] + CCCCn1cc[n+](C)c1.F[B-](F)(F)F | 1.44 ± 0.09
5 | Cc1cccc(C)c1 [1,3-dimethylbenzene] + CCCCn1cc[n+](C)c1.F[B-](F)(F)F | 6.89 ± 0.41
6 | C#CCCCC [1-hexyne] + CCCCn1cc[n+](C)c1.F[B-](F)(F)F | 7.47 ± 0.45
7 | CCOCC [diethyl ether] + CCCCn1cc[n+](C)c1.F[B-](F)(F)F | 8.18 ± 0.49
8 | C[N+](=O)[O-] [nitromethane] + CCCCn1cc[n+](C)c1.F[B-](F)(F)F | 0.56 ± 0.03
9 | C1COCCO1 [1,4-dioxane] + CCCCn1cc[n+](C)c1.F[B-](F)(F)F | 1.28 ± 0.08
10 | CC(C)CO [2-methyl-1-propanol] + CCCCn1cc[n+](C)c1.F[B-](F)(F)F | 3.28 ± 0.2
11 | CCC[N+](=O)[O-] [1-nitropropane] + CCCCn1cc[n+](C)c1.F[B-](F)(F)F | 1.46 ± 0.09
12 | C#CCCCCC [1-heptyne] + CCCCn1cc[n+](C)c1.F[B-](F)(F)F | 11.9 ± 0.72
13 | Cc1ccc(C)cc1 [1,4-dimethylbenzene] + CCCCn1cc[n+](C)c1.F[B-](F)(F)F | 6.71 ± 0.4
14 | CC(C)O [propan-2-ol] + CCCCn1cc[n+](C)c1.F[B-](F)(F)F | 2.5 ± 0.15
15 | Cc1ccccc1 [toluene] + CCCCn1cc[n+](C)c1.F[B-](F)(F)F | 3.97 ± 0.24
16 | OCC(F)(F)F [2,2,2-trifluoroethanol] + CCCCn1cc[n+](C)c1.F[B-](F)(F)F | 0.32 ± 0.02
17 | Cc1ccccc1C [1,2-dimethylbenzene] + CCCCn1cc[n+](C)c1.F[B-](F)(F)F | 5.83 ± 0.35
18 | CCC(C)CC [3-methylpentane] + CCCCn1cc[n+](C)c1.F[B-](F)(F)F | 82.9 ± 5
19 | c1ccncc1 [pyridine] + CCCCn1cc[n+](C)c1.F[B-](F)(F)F | 0.97 ± 0.06
20 | CC#N [acetonitrile] + CCCCn1cc[n+](C)c1.F[B-](F)(F)F | 0.64 ± 0.04

The next lines start with the values.

Row | activity coefficient | Compound
21 | 3.33 ± 0.2 | CCCCO [butan-1-ol] + CCCCn1cc[n+](C)c1.F[B-](F)(F)F
22 | 333 ± 20 | CCCCCCCC [octane] + CCCCn1cc[n+](C)c1.F[B-](F)(F)F
23 | 1.29 ± 0.08 | CCC=O [propanal] + CCCCn1cc[n+](C)c1.F[B-](F)(F)F
24 | 2.66 ± 0.16 | CCC(=O)CC [pentan-3-one] + CCCCn1cc[n+](C)c1.F[B-](F)(F)F
25 | 1.7 ± 0.1 | CCO [ethanol] + CCCCn1cc[n+](C)c1.F[B-](F)(F)F
26 | 2.66 ± 0.16 | CCCC(C)=O [pentan-2-one] + CCCCn1cc[n+](C)c1.F[B-](F)(F)F
27 | 2.25 ± 0.14 | c1ccccc1 [benzene] + CCCCn1cc[n+](C)c1.F[B-](F)(F)F
28 | 26.9 ± 1.6 | CC(C)OC(C)C [diisopropyl ether] + CCCCn1cc[n+](C)c1.F[B-](F)(F)F
29 | 612 ± 37 | CCCCCCCCC [nonane] + CCCCn1cc[n+](C)c1.F[B-](F)(F)F
30 | 64.2 ± 3.9 | CC1CCCCC1 [methylcyclohexane] + CCCCn1cc[n+](C)c1.F[B-](F)(F)F
31 | 1.09 ± 0.07 | ClC(Cl)Cl [trichloromethane] + CCCCn1cc[n+](C)c1.F[B-](F)(F)F
32 | 42.8 ± 2.6 | CC1CCCC1 [methylcyclopentane] + CCCCn1cc[n+](C)c1.F[B-](F)(F)F
33 | 0.26 ± 0.02 | C=O [methanal] + CCCCn1cc[n+](C)c1.F[B-](F)(F)F
34 | 36.3 ± 2.2 | C=CCCCC [hex-1-ene] + CCCCn1cc[n+](C)c1.F[B-](F)(F)F
35 | 0.79 ± 0.05 | ClCCl [dichloromethane] + CCCCn1cc[n+](C)c1.F[B-](F)(F)F
36 | 42.7 ± 2.6 | C1CCCCC1 [cyclohexane] + CCCCn1cc[n+](C)c1.F[B-](F)(F)F
37 | 6.85 ± 0.41 | CCc1ccccc1 [ethylbenzene] + CCCCn1cc[n+](C)c1.F[B-](F)(F)F
38 | 2.43 ± 0.15 | CCCO [propan-1-ol] + CCCCn1cc[n+](C)c1.F[B-](F)(F)F
39 | 2.15 ± 0.13 | CCCC=O [butanal] + CCCCn1cc[n+](C)c1.F[B-](F)(F)F
40 | 1.22 ± 0.07 | CO [methanol] + CCCCn1cc[n+](C)c1.F[B-](F)(F)F
41 | 131 ± 7.9 | C1CCCCCC1 [cycloheptane] + CCCCn1cc[n+](C)c1.F[B-](F)(F)F
42 | 216 ± 13 | CCCCCCC [heptane] + CCCCn1cc[n+](C)c1.F[B-](F)(F)F
43 | 1.54 ± 0.09 | c1ccsc1 [thiophene] + CCCCn1cc[n+](C)c1.F[B-](F)(F)F
44 | 35.3 ± 2.2 | CCN(CC)CC [triethylamine] + CCCCn1cc[n+](C)c1.F[B-](F)(F)F

same assay, conditions: 332.55 K; Liquid; Chromatography; x1 = 0

Row | activity coefficient | Compound
45 | 74.2 ± 5.1 | CCCCCC [hexane] + CCCCn1cc[n+](C)c1.F[B-](F)(F)F

same assay, conditions: 332.55 K; Liquid; inverse gas chromatography; x1 = 0

Row | Compound | activity coefficient
46 | ClC(Cl)(Cl)Cl [tetrachloromethane] + CCCCn1cc[n+](C)c1.F[B-](F)(F)F | 5.2 ± 0.31
47 | CC(C)CC(C)(C)C [2,2,4-trimethylpentane] + CCCCn1cc[n+](C)c1.F[B-](F)(F)F | 272 ± 16
48 | CCC(C)=O [butanone] + CCCCn1cc[n+](C)c1.F[B-](F)(F)F | 1.25 ± 0.08
49 | Cc1cccc(C)c1 [1,3-dimethylbenzene] + CCCCn1cc[n+](C)c1.F[B-](F)(F)F | 6.56 ± 0.39
50 | C#CCCCC [1-hexyne] + CCCCn1cc[n+](C)c1.F[B-](F)(F)F | 6.82 ± 0.41
51 | CCOCC [diethyl ether] + CCCCn1cc[n+](C)c1.F[B-](F)(F)F | 7.42 ± 0.45
52 | C[N+](=O)[O-] [nitromethane] + CCCCn1cc[n+](C)c1.F[B-](F)(F)F | 0.56 ± 0.03
53 | C1COCCO1 [1,4-dioxane] + CCCCn1cc[n+](C)c1.F[B-](F)(F)F | 1.22 ± 0.07
54 | CC(C)CO [2-methyl-1-propanol] + CCCCn1cc[n+](C)c1.F[B-](F)(F)F | 2.84 ± 0.17
55 | CCC[N+](=O)[O-] [1-nitropropane] + CCCCn1cc[n+](C)c1.F[B-](F)(F)F | 1.5 ± 0.09
56 | C#CCCCCC [1-heptyne] + CCCCn1cc[n+](C)c1.F[B-](F)(F)F | 11.7 ± 0.7
57 | Cc1ccc(C)cc1 [1,4-dimethylbenzene] + CCCCn1cc[n+](C)c1.F[B-](F)(F)F | 6.26 ± 0.38
58 | CC(C)O [propan-2-ol] + CCCCn1cc[n+](C)c1.F[B-](F)(F)F | 2.15 ± 0.13
59 | Cc1ccccc1 [toluene] + CCCCn1cc[n+](C)c1.F[B-](F)(F)F | 3.84 ± 0.23
60 | OCC(F)(F)F [2,2,2-trifluoroethanol] + CCCCn1cc[n+](C)c1.F[B-](F)(F)F | 0.3 ± 0.02
61 | Cc1ccccc1C [1,2-dimethylbenzene] + CCCCn1cc[n+](C)c1.F[B-](F)(F)F | 4.77 ± 0.29
62 | CCC(C)CC [3-methylpentane] + CCCCn1cc[n+](C)c1.F[B-](F)(F)F | 152 ± 9.2
63 | c1ccncc1 [pyridine] + CCCCn1cc[n+](C)c1.F[B-](F)(F)F | 0.94 ± 0.06
64 | CC#N [acetonitrile] + CCCCn1cc[n+](C)c1.F[B-](F)(F)F | 0.61 ± 0.04

Continued, values first:

Row | activity coefficient | Compound
65 | 2.69 ± 0.16 | CCCCO [butan-1-ol] + CCCCn1cc[n+](C)c1.F[B-](F)(F)F
66 | 298 ± 18 | CCCCCCCC [octane] + CCCCn1cc[n+](C)c1.F[B-](F)(F)F
67 | 1.21 ± 0.07 | CCC=O [propanal] + CCCCn1cc[n+](C)c1.F[B-](F)(F)F
68 | 2.52 ± 0.15 | CCC(=O)CC [pentan-3-one] + CCCCn1cc[n+](C)c1.F[B-](F)(F)F
69 | 1.53 ± 0.09 | CCO [ethanol] + CCCCn1cc[n+](C)c1.F[B-](F)(F)F
70 | 2.53 ± 0.15 | CCCC(C)=O [pentan-2-one] + CCCCn1cc[n+](C)c1.F[B-](F)(F)F
71 | 2.16 ± 0.13 | c1ccccc1 [benzene] + CCCCn1cc[n+](C)c1.F[B-](F)(F)F
72 | 24.3 ± 1.5 | CC(C)OC(C)C [diisopropyl ether] + CCCCn1cc[n+](C)c1.F[B-](F)(F)F
73 | 464 ± 28 | CCCCCCCCC [nonane] + CCCCn1cc[n+](C)c1.F[B-](F)(F)F
74 | 57.1 ± 3.4 | CC1CCCCC1 [methylcyclohexane] + CCCCn1cc[n+](C)c1.F[B-](F)(F)F
75 | 1.09 ± 0.07 | ClC(Cl)Cl [trichloromethane] + CCCCn1cc[n+](C)c1.F[B-](F)(F)F
76 | 55.4 ± 3.3 | CC1CCCC1 [methylcyclopentane] + CCCCn1cc[n+](C)c1.F[B-](F)(F)F
77 | 0.25 ± 0.02 | C=O [methanal] + CCCCn1cc[n+](C)c1.F[B-](F)(F)F
78 | 38.8 ± 2.3 | C=CCCCC [hex-1-ene] + CCCCn1cc[n+](C)c1.F[B-](F)(F)F
79 | 0.79 ± 0.05 | ClCCl [dichloromethane] + CCCCn1cc[n+](C)c1.F[B-](F)(F)F
80 | 35.3 ± 2.1 | C1CCCCC1 [cyclohexane] + CCCCn1cc[n+](C)c1.F[B-](F)(F)F
81 | 6.51 ± 0.39 | CCc1ccccc1 [ethylbenzene] + CCCCn1cc[n+](C)c1.F[B-](F)(F)F
82 | 2.14 ± 0.13 | CCCO [propan-1-ol] + CCCCn1cc[n+](C)c1.F[B-](F)(F)F
83 | 2.06 ± 0.12 | CCCC=O [butanal] + CCCCn1cc[n+](C)c1.F[B-](F)(F)F
84 | 1.18 ± 0.07 | CO [methanol] + CCCCn1cc[n+](C)c1.F[B-](F)(F)F
85 | 167 ± 10 | C1CCCCCC1 [cycloheptane] + CCCCn1cc[n+](C)c1.F[B-](F)(F)F
86 | 142 ± 8.7 | CCCCCCC [heptane] + CCCCn1cc[n+](C)c1.F[B-](F)(F)F
87 | 1.49 ± 0.09 | c1ccsc1 [thiophene] + CCCCn1cc[n+](C)c1.F[B-](F)(F)F
88 | 59.4 ± 3.6 | CCN(CC)CC [triethylamine] + CCCCn1cc[n+](C)c1.F[B-](F)(F)F
